Values after ≈ are worked out from the molar mass of the structure shown. Values joined by “and” are separate entries in the source; they are usually repeats but may differ in a detail not shown here. Equal values may be shown once. “Also recorded” adds a separate entry of the source.
Legend:
[1] = Octanol/H2O partition coefficient (log P); format: physicochemical; settings: octanol/water; Table VII; octanol/H2O
Text: ^(b) Octanol/H2 O values determined by C. Hansch and M. Yamakawa

lymphoid leukemia L1210 [2] = assay: Intraperitoneal (IP) lymphoid leukemia L1210 transplanted mouse tumor test; format: in vivo, murine
Text: ^(a) Day 1-9 treatment schedule (9 injections)
^(b) Day 1,5,9 treatment schedule (3 injections)
^(c) Day 1 only treatment schedule (1 injection)
^(f) Percentage increase in life span of treated animals [(treated
survival .div. control survival) × 100%] - 100%

B16 melanocarcinoma = assay: Intraperitoneal B16 melanocarcinoma transplanted mouse tumor test; format: in vivo, murine; settings: Table IX; B16, QD1-9, at OD
Text: ^b Ip tumor implantation, ip QD1-9 treatment schedule.
The L1210, P388 and B16 test systems described in Table II utilize intraperitoneal (IP) tumor implantation and IP drug treatment while the Lewis lung system employs subcutaneous tumor implantation and IP treatment.
Aqueous saline solution (0.9%) was used as the drug vehicle. Normally, five doses were employed per experiment with the top dose chosen to produce toxicity. The lower doses were 50% of each preceeding dose.
Consistent with NCI antitumor test protocols, intraperitoneal (IP) administration of the drug was employed with all five tumor systems investigated. Tumor implantation was IP in the systems designated IP leukemia L1210 and P388 as well as B16 melanoma.

[3] = tested on: IP ascites tumor systems (leukemia L1210 and P388); assay: IP ascites tumor systems (leukemia L1210 and P388); format: in vivo, murine
Text: The criterion for minimum activity, %ILS, is defined here as follows: Intraperitoneal and intracerebral leukemia L1210 and intraperitoneal leukemia P388, 25%; intraperitoneal B16 melanoma and intracerebral ependymoblastoma, 40%. Consistent with NCI antitumor test protocols, intraperitoneal (IP) administration of the drug was employed with all five tumor systems investigated. Tumor implantation was IP in the systems designated IP leukemia L1210 and P388 as well as B16 melanoma. Intracerebral (IC) tumor implantation was utilized in the IC L1210 and ependymoblastoma tumor systems.

lymphoid leukemia L1210 [4] = assay: Intracerebral (IC) lymphoid leukemia L1210 test; format: in vivo, murine
Text: ^b Ic tumor implantation, ip QD1-9 treatment schedule.
The L1210, P388 and B16 test systems described in Table II utilize intraperitoneal (IP) tumor implantation and IP drug treatment while the Lewis lung system employs subcutaneous tumor implantation and IP treatment. All three CNS tumor models (Table III) use intracerebral (IC) tumor implantation and IP treatment.
Consistent with NCI antitumor test protocols, intraperitoneal (IP) administration of the drug was employed with all five tumor systems investigated. Tumor implantation was IP in the systems designated IP leukemia L1210 and P388 as well as B16 melanoma. Intracerebral (IC) tumor implantation was utilized in the IC L1210 and ependymoblastoma tumor systems.

ependymoblastoma = assay: Intracerebral (IC) ependymoblastoma (EM) brain tumor test; format: in vivo, murine; settings: Table X, IC ependymoblastoma
[5] = Room temperature water solubility; format: physicochemical; settings: water; Table VII; room temperature, approximate; read-out: Approx. H2O Sol.
Procedure, shortened: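 Water added incrementally by pipet, with shaking, to a weighed amount of compound at room temperature until dissolved; values are approximate.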

[6] = tested on: P388 lymphocytic leukemia; assay: Intraperitoneal (IP) lymphocytic leukemia P388 transplanted mouse tumor test; format: in vivo, murine
[7] = Table XI, per 6 test animals, day 30

O=C1C(N2CCN(CCO)CC2)=C(N2CC2)C(=O)C(N2CCN(CCO)CC2)=C1N1CC1 [Compound 47]
logP [1]: -0.75
OD (optimum dose) (lymphoid leukemia L1210 [2]; Table VIII, IP L1210, Day 1 only (1 injection)): 4.0 mg/kg/injection
OD (optimum dose) (lymphoid leukemia L1210 [2]; Table VIII, IP L1210, Q4D(1,5,9) (3 injections)): 4.0 mg/kg/injection and 2.0 mg/kg/injection
animals alive per 6 test animals on day of termination (lymphoid leukemia L1210 [2]; Table VIII, IP L1210, Q4D(1,5,9), at OD, day 30): 3 and 4
OD (optimum dose) (lymphoid leukemia L1210 [2]; Table VIII, IP L1210, QD1-9 (9 injections)): 1.0 mg/kg/injection and 0.5 mg/kg/injection
T - C (average weight change of test group minus control) (lymphoid leukemia L1210 [2]; Table VIII, IP L1210, QD1-9, at OD, day 5): -1.7 grams
animals alive per 6 test animals on day of termination (lymphoid leukemia L1210 [2]; Table VIII, IP L1210, QD1-9, at OD, day 30): 1
survivors (number in parentheses) IP L1210 (lymphoid leukemia L1210 [2]; [7]): 3
cures (lymphoid leukemia L1210 [2]; survivors on day 30, L1210): produced cures
ILS (percentage increase in life span) (B16 melanocarcinoma): 22%
antitumor activity [3]: most active; also recorded: superior
antitumor activity (lymphoid leukemia L1210 [4]; IC L1210): marginal
OD (optimum dose) (lymphoid leukemia L1210 [4]; Table X, IC L1210, QD1-9): 2.0 mg/kg/injection and 1.5 mg/kg/injection
ILS (percentage increase in life span) (lymphoid leukemia L1210 [4]; Table X, IC L1210, QD1-9, at OD): 43% and 41%
T - C (average weight change of test group minus control) (lymphoid leukemia L1210 [4]; Table X, IC L1210, QD1-9, at OD, day 5): -1.4 grams
OD (optimum dose) (ependymoblastoma; QD1-5): 1.0 mg/kg/injection
ILS (percentage increase in life span) (ependymoblastoma; QD1-5, at OD): 75%
solubility [5]: 20 mg/mL (≈ 44.8 mM)
antitumor activity ([6]; IP P388): very active
cures ([6]; P388, 30 day survivors, QD1-9): multiple cures
OD (optimum dose) ([6]; Table IX, IP P388, QD1-9): 0.5 mg/kg/injection and 1.0 mg/kg/injection
ILS (percentage increase in life span) ([6]; Table IX, IP P388, QD1-9, at OD): 149% and 143%
animals alive per 6 test animals on day of termination ([6]; Table IX, IP P388, QD1-9, at OD, day 30): 3 and 6
survivors (number in parentheses) P388 [6, 7]: 3

Reference: patent US4146622A, “Aziridinyl quinone anti-transplanted tumor agents” (priority 1977, dated 1979)
